# Assay results as given in patent publication US20230416791A1, “METHOD TO PRODUCE BRANCHED-CHAIN POLYHYDROXYALKANOATES AND BRANCHED-CHAIN 3-HYDROXYACIDS FROM GLUCOSE” (Alliance for Sustainable Energy, LLC, priority 2022, published 2023).
# Substitutions are numbered along the chain they refer to. In names and notes the source's numbering stands.
# B1: Pseudomonas putida KT2440 MadB (PP_0262, malonyl-ACP decarboxylase), wild type (Pseudomonas putida KT2440) (protein)
# chain: MSTDSQYLQSVLHSDIPLTREMGLEVIDWQQHTLRLQLPLAANVNHKSTMFGGSLYCAAVLVGWGWLHLRLRELGIDDGHIVIQEGQISYPLPVTGTAVARCAAPDEKTWERFLTLYQRRGRARLTLETTVSNDGSDEPAVRFSGQYVLHR
# B2: Pseudomonas putida KT2440 MadB (PP_0262) variant His46Ala (H46A) (Pseudomonas putida KT2440; H46A) (protein)
# chain: B1 chain with H46A
# B3: Pseudomonas putida KT2440 MadB (PP_0262) variant Asn45Ala (N45A) (Pseudomonas putida KT2440; N45A) (protein)
# chain: B1 chain with N45A
# Tests used:
# [1] = system: P. putida KT2440 ΔmadB ΔfabH1; assay: Growth of P. putida ΔmadB ΔfabH1 supplemented with straight-chain fatty acids; assay type: cell-based, Pseudomonas putida KT2440; settings: 100 μg/mL, modified M9 minimal medium, 30° C.
# Protocol: (§1) Microplate reader experiments. Microplate reader experiments were performed by inoculating seed cultures from glycerol stocks into 10 mL of LB Broth (Miller; Sigma-Aldrich) with appropriate antibiotics in a 125 mL flask and incubating overnight at 30° C. (P. putida) or 37° C. (E. coli) and 225 rpm. Overnight cultures were then used to inoculate a second seed culture into 10 mL of LB Broth (Miller; Sigma-Aldrich) with appropriate antibiotics in a 125 mL flask starting at an optical density of 0.2 measured at 600 nm (0D600) using a GENESYS™ 140 Visible Light Spectrophotometer (Thermo Scientific). The second seed cultures were incubated at 30° C. (P. putida) or 37° C. (E. coli) at 225 rpm for 2-4 hrs until an OD600 of approximately 2 was reached. The second seed cultures were centrifuged at 8,000 rpm for 3 min, the pellets were washed with 1× M9, minimal salts (Sigma-Aldrich) three times, and resuspended to an OD600=3.0. Cells (10 μL) were transferred to five replicate wells in a 100-well Honeycomb 2 plate (Growth Curves USA) containing 290 μL of growth medium, corresponding to initial OD600=0.1. E. coli strains were grown in LB Broth (Miller; Sigma-Aldrich) at 37° C. and supplemented with 50 μg/mL kanamycin and 0.1 mM isopropylthio-β-galactoside (IPTG; GoldBio) when appropriate. P. putida strains were grown in modified M9 minimal media containing 6.78 g/L Na2HPO4, 3 g/L KH2PO4, 1 g/L NH4C1, 0.5 g/L NaCl, 2 mM MgSO4, 100 μM CaCl2, and 2 g/L glucose at 30° C. For fatty acid supplementation experiments, sodium salts of a given fatty acid (Sigma-Aldrich) were added to a final concentration of 100 μg/mL. OD600 measurements were acquired every 15 min with a Bioscreen C Pro (Growth Curves USA) and plate was shaken continuously. Maximum specific growth rates were calculated using a spline model (https://github.com/scott-saunders/growth_curve_fitting).
# ΔmadB ΔfabH1 P. putida = assay: Growth curves with straight-chain fatty acid supplementation (microplate reader); assay type: cell-based, Pseudomonas putida KT2440; settings: fatty acid sodium salt at 100 μg/mL, modified M9 with glucose, 30° C.
# Protocol: as §1
# MadB = assay: Transformation of non-EcAcpP substrate by MadB (HPLC / LC-MS detection); assay type: biochemical, Pseudomonas putida KT2440; settings: 1 mM substrate, 5 μM MadB, HEPES pH 7.5, room temperature
# Protocol: Transformation of non-EcAcpP substrate by MadB. […] The reaction contained 1 mM of the alternate substrate and 5 μM of MadB in HEPES (I=0.1 M) pH 7.5 supplemented with 10 mM MgCl2 and 1 mM TCEP. The reaction was incubated at room temperature with an intermittent agitation for −1 hour prior to being passed through a 0.2 μm filter and frozen until further analysis.
# Detection of various CoA analytes in the samples were performed on an Agilent 1200 HPLC system (Agilent Technologies) equipped with an Agilent 6120 mass spectrometer detector (MS). Each sample and standard were injected at a volume of 2 μL on a Phenomenex Luna C18(2)-HST column 100A′, […], 2.0×100 mm column (Phenomenex). The column temperature was maintained at 45° C. and the buffers used to separate the analytes of interest was 0.1% formic acid in water (A)/0.1% formic acid in acetonitrile (B). A gradient program was used to separate the analytes of interest: (A)=100% and (B)=0% at time t=0; (A)=100% and (B)=0% at t=1 min; (A)=50% and (B)=50% at t=7.65 min; (A)=30% and (B)=70% at t=9.33 min; (A)=30% and (B)=70% at t=10.67 min; (A)=100% and (B)=0% at t=10.68 min; (A)=100% and (B)=0% at t=13 min. The flow rate was held constant at 0.50 mL/min resulting in a run time of 13 minutes. The MS system was setup in positive electrospray ionization mode with a gas temperature of 350° C., drying gas at 12 L/min, nebulizer pressure set to 35 psig, and a Vcap voltage of 3000v. A total of four different masses in SIM mode from the MS detector were used to determine the presence and or absence of each analyte of interest. […] One standard from each analyte was used to determine the elution order and retention times of the compounds.
# Detection of malonic and acetic acid was performed on an Agilent 1290 HPLC system (Agilent Technologies) equipped with an Agilent G7117A diode array detector (DAD). NREL's laboratory analytical procedure “Determination of Structural Carbohydrates and Lignin in Biomass” (Sluiter et al., 2012) HPLC method was used to detect the analytes of interest as outlined below. […]
# [2] = molecular target: T1, Pseudomonas putida KT2440 MadB (PP_0262) variant His46Ala (H46A) (Pseudomonas putida, UniProt Q88R72, H46A); assay: ITC steady-state kinetics of malonyl-CoA decarboxylation
# T1 sequence (Q88R72 1-151 H46A): B1 chain with H46A
# From the text: (§2) Kinetic determination using ITC.
# (§3) Both variants were purified similarly to the wild-type MadB.
# [3] = molecular target: T2, Pseudomonas putida KT2440 MadB (PP_0262) variant Asn45Ala (N45A) (Pseudomonas putida, UniProt Q88R72, N45A); assay: as above
# T2 sequence (Q88R72 1-151 N45A): B1 chain with N45A
# From the text: as §2, §3
# [4] = molecular target: T3, Pseudomonas putida KT2440 MadB (PP_0262, malonyl-ACP decarboxylase), wild type (Pseudomonas putida, UniProt Q88R72); settings: malonyl-CoA decarboxylation, ITC, 30° C., pH 7.5
# T3 sequence (Q88R72 1-151): B1 chain
# [5] = substrate: CC(C)(COP(=O)(O)OP(=O)(O)OC[C@H]1O[C@@H](n2cnc3c(N)ncnc32)[C@H](O)[C@@H]1OP(=O)(O)O)[C@@H](O)C(=O)NCCC(=O)NCCSC(=O)CC(=O)O; assay: purified protein, by the assay type; settings: other: malonyl-CoA decarboxylation, ITC, 30° C., pH 7.5
# [6] = malonyl-CoA, His46Ala vs wild-type
# [7] = malonyl-CoA, Asn45Ala vs wild-type
molecule,measurement,setting,value
CC(=O)O [C2],effect of fatty acid supplementation on growth,[1],no effect on growth
same,effect on growth of ΔmadB ΔfabH1,ΔmadB ΔfabH1 P. putida,had no effect on growth
CCCC(=O)O [C4],effect of fatty acid supplementation on growth,[1],inhibited
same,effect on growth of ΔmadB ΔfabH1,ΔmadB ΔfabH1 P. putida,inhibited
CCCCCC(=O)O [C6],effect of fatty acid supplementation on growth,[1],"improve growth, albeit less significantly"
same,effect on growth of ΔmadB ΔfabH1,ΔmadB ΔfabH1 P. putida,"appeared to improve growth, albeit less significantly"
CCCCCCCC(=O)O [C8],effect of fatty acid supplementation on growth,[1],dramatic improvement of growth
same,effect on growth of ΔmadB ΔfabH1,ΔmadB ΔfabH1 P. putida,dramatic improvement of growth
CCCCCCCCCC(=O)O [C10],effect of fatty acid supplementation on growth,[1],dramatic improvement of growth
same,effect on growth of ΔmadB ΔfabH1,ΔmadB ΔfabH1 P. putida,dramatic improvement of growth
O=C(O)CC(=O)O [malonate],decarboxylation by MadB,MadB,not
CC(C)(COP(=O)(O)OP(=O)(O)OC[C@H]1O[C@@H](n2cnc3c(N)ncnc32)[C@H](O)[C@@H]1OP(=O)(O)O)[C@@H](O)C(=O)NCCC(=O)NCCSC(=O)CC(=O)O [malonyl-CoA],Kcat,"[2]; malonyl-CoA decarboxylation, His46Ala, ITC, 30° C., pH 7.5",0.45 ± 0.01 s⁻¹
same,Michaelis constant relative to wild-type,[2]; [6],about half
same,lower catalytic efficiency compared to the wild-type enzyme,[2]; [6],1.5 fold
same,Kcat,"[3]; malonyl-CoA decarboxylation, Asn45Ala, ITC, 30° C., pH 7.5",0.06 ± 0.01 s⁻¹
same,Michaelis constant relative to wild-type,[3]; [7],about half
same,lower catalytic efficiency compared to the wild-type enzyme,[3]; [7],13 fold
same,decarboxylation by MadB,MadB,capable of decarboxylating
same,Kcat,[4],1.4 ± 0.1 s⁻¹
CC(C(=O)O)C(=O)SCCNC(=O)CCNC(=O)[C@H](O)C(C)(C)COP(=O)(O)OP(=O)(O)OC[C@H]1O[C@@H](n2cnc3c(N)ncnc32)[C@H](O)[C@@H]1OP(=O)(O)O (stereo partly shown) [methylmalonyl-CoA],decarboxylation by MadB,MadB,capable of decarboxylating
B1,Km,[5]; wild-type MadB,12 ± 1 mM
same,kcat,[5]; wild-type MadB,1.4 s⁻¹
same,kcat/Km,[5]; wild-type MadB,120 M⁻¹ s⁻¹
B2,Km,[5]; His46Ala,5.7 ± 0.2 mM
B3,Km,[5]; Asn45Ala,6.9 ± 0.5 mM
